Results: PubChem BioAssay AID179 (DTP/NCI, 2004)
Several values for one entry are separate records, joined by “and”; a condition that tells them apart may be missing. Equal entries are not always repeated. Activity calls are given as the source filed them.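 The calls were made as follows: active = compounds giving half or more protection of infected cells from virus-caused growth loss, again on retest; inactive = the rest.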

Tested on: CEM cells HIV-1 protection, formazan growth assay
Test: NCI AIDS Antiviral Assay
Details: for IC50: measured here: growth of uninfected CEM cells
Method in brief: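 Steps: treat uninfected and HIV-1-infected human CEM cells at five drug levels; quantify growth by soluble formazan; retest any compound reaching 50% protection; classify actives from the retest.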

SMILES	EC50 [µM]	IC50	outcome
CC(=Nc1ccccc1S)c1c(O)ccc2c(C)cc(=O)oc12	> 11.5	> 11.5 µM	–
O=c1c(F)cn2c(=O)n1CCCCCCCn1c(=O)c(F)cn(c1=O)CCCCCCC2	> 200	155 µM	–
C1CCC(CSSCC2(N3CCCC3)CCCCC2)(N2CCCC2)CC1	> 200	> 100 µM	–
CCOC(=O)C(C)(NC(=O)c1ccc(NCc2ccc3nc(NC(=O)c4ccccc4)nc(NC(=O)c4ccccc4)c3c2)cc1)C(=O)OCC	> 50.1	32.4 µM	–
N#Cc1c(OCCF)c2ccccc2n2c1nc1ccccc12	> 100	> 100 µM	–
Clc1ccc(C(Cc2cccc(Cl)c2)c2c(Cl)nc(N3CCNCC3)nc2Cl)cc1 (centres undefined)	> 200	17.4 µM	–
CN1Cc2ccccc2S(=O)(=O)n2cccc2C1=O	> 200	> 200 µM	–
Cc1nnc2c([N+](=O)[O-])c(N)c(Cl)nn12	> 200	1.29 µM	–
C=CC(=O)NC(O)(C(=O)OCC)C(F)(F)F (centres undefined)	> 200	> 200 µM	–
CSc1nc(NC2OCC(O)C(O)C2O)cc(=O)[nH]1 (centres undefined)	–	–	inactive
O=C1OC(c2ccccc2)(c2ccccc2)CC1CN1CCOCC1 (centres undefined)	> 57.5	12 µM	–
C#CCNC(=O)NCCCCC(NC(=O)OCc1ccccc1)C(=O)OCc1ccccc1 (centres undefined)	> 151	97.7 µM	–
CC(=O)O[C@@H]1CC[C@@]2(C)C(CC[C@H]3[C@@H]4CC[C@H]([C@H](C)CCc5nc6ccc(C)cc6[nH]5)[C@@]4(C)CC[C@@H]32)C1 (some centres undefined)	> 200	16.6 µM	–
CN(C)C(=Nc1ccc(NC(=O)c2ccc(C(=O)Nc3ccc(N=C(Nc4ccccc4)N(C)C)cc3)cc2)cc1)Nc1ccccc1	–	–	inactive
Cc1ccc(-c2cssc2=S)cc1	> 200	> 200 µM	–
Cc1cn2c(nc1=O)OC1C(O)C(CCl)OC12 (centres undefined)	> 200	> 200 µM	–
NCC(=O)NC1OC(COP(=O)(O)O)C(O)C1O (centres undefined)	> 200	> 200 µM	–
COc1ccc(NC(=O)/C(CC2=Nc3ccc([N+](=O)[O-])cc3NC2O)=N\NC(=O)C[N+](C)(C)C)c(OC)c1 (centres undefined)	> 45.7	> 45.7 µM	–
CC(C)[Si](O[C@@H]1CCC[C@@]23O[C@@H]2CC2C(=O)c4c(O)cccc4C(=O)[C@@]2(O)[C@@H]13)(C(C)C)C(C)C (some centres undefined)	> 200	14.1 µM	–
Cc1[nH]n(-c2ccccc2)c(=O)c1/C=N\C(N)=S	> 200	182 µM	–
O=S(CCc1ccccc1)Nc1ccccc1 (centres undefined)	> 200	> 200 µM	–

SMILES	EC50 [µM]	IC50	outcome
O=C(O)CS(=O)(=O)O	> 200	> 200 µM	–
O=c1cc(-c2ccccc2)oc2c(O)c(O)cc(O)c12	> 186	> 186 µM	–
S=C1NC2(CCCCCC2)NN1c1ccccc1	> 100	30.9 µM	–
COC(=O)CC1C(COC(C)=O)OC(n2ccc(=O)[nH]c2=O)C1OC(C)=O (centres undefined)	0.537	> 200 µM	–
CC1C2CC(CC(=O)N2)C1(C)C (centres undefined)	> 1480	759 µM	–
COc1ccc(C2(OC)Oc3cc(OC)ccc3C(=O)C2(O)OC)cc1 (centres undefined)	> 200	11 µM	–
CC(=O)NC1=NC(=O)/C(=C/c2ccc3c(c2)OCO3)N1C	> 200	> 200 µM	–
Cc1cc(Sc2cc(C)c(O)c(C(C)(C)C)c2)cc(C(C)(C)C)c1O	> 200	15.8 µM	–
COc1ccc(/C=C2\NC(=S)NC2=O)cc1	> 200	151 µM	–
O=C1CCN=C(NC(=O)C(F)(F)F)N1CCc1c[nH]c2ccccc12	> 200	> 200 µM	–
c1ccc2c(Nc3ncco3)cccc2c1	> 200	162 µM	–
CN(C)CCC(O)(c1ccccc1)C(O)(CCN(C)C)c1ccccc1 (centres undefined)	> 72.4	> 72.4 µM	–
O=C1C(Cl)N(c2ccc(Cl)cc2)C1c1c[nH]c2ccccc12 (centres undefined)	> 204	5.13 µM	–
CCN(CC)c1ccc2c(-c3ccccc3C(=O)O)c3ccc(=[N+](CC)CC)cc-3oc2c1	> 100	9.12 µM and 13.5 µM	–
CCCc1cc(=O)oc2c3c(c4c(c12)OC(C)(C)CC4)O[C@H](C)[C@H](C)C3=O	> 30.2	13.2 µM	–
CN1C2(c3ccccc3)c3c(-c4ccccc4)sc(-c4ccccc4)c3C1(c1ccccc1)C1C(=O)N(c3ccccc3)C(=O)C12 (centres undefined)	–	–	inactive
COc1cccc2c(NCCC[N+](C)(C)[O-])c3c([N+](=O)[O-])ccc(OC)c3nc12	> 200	1.32 µM	–
O=C(NCCN1CCOCC1)c1cn2c(ccc3sc4ccccc4c(=O)c32)n1	> 200	3.55 µM	–
C#C[C@]1(O)CC[C@H]2[C@@H]3CCC4=C/C(=N/OCCN(C)C)CC[C@]4(C)[C@H]3CC[C@@]21C	> 100	4.79 µM	–
Cc1ccc(/C=C2\CCCC(CN(C)C)C2=O)cc1 (centres undefined)	> 200	0.617 µM	–
